Reference: patent US20230045421A1 (priority 2018, published 2023)
pEC50: −log10 of the molar value.

What follows are compounds tested on HBV rcDNA (assay: HepDE19 assay with bDNA quantitation of HBV rcDNA). Conditions: HepDE19 assay, inhibition of formation of relaxed circular DNA (rcDNA), bDNA quantitation; read-out: DE-19bDNA EC50.
Assay type: cell-based, hepatitis B virus
Summary of the method: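 HepDE19 cells (HepG2-derived, Tet-regulated HBV replication) were deprived of tetracycline and then exposed to compounds for 7 days at 37 °C in 0.5% DMSO, 8-point titration from 25 μM. rcDNA was quantified by bDNA and EC50/EC90 came from 4-parameter fits. CC50 was measured by CellTiter-Glo ATP content on replicate plates after 4 days.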

Row | SMILES | pEC50
1 | CC(c1c[nH]c(=O)c2cc(F)c(F)cc12)N(C)C(=O)Nc1cc(F)c(F)c(F)c1 (single isomer, unassigned) [Compound 414, 1-(1-(6,7-Difluoro-1-oxo-1,2-dihydroisoquinolin-4-yl)ethyl)-3-(3,4,5-trifluorophenyl)-1-methylurea] | 5.32
2 | CC(c1c[nH]c(=O)c2cc(F)c(F)cc12)N(C)C(=O)Nc1cc(F)c(F)c(F)c1 (single isomer, unassigned) [Compound 415, 1-(1-(6,7-Difluoro-1-oxo-1,2-dihydroisoquinolin-4-yl)ethyl)-3-(3,4,5-trifluorophenyl)-1-methylurea] | 7.68
3 | CC(c1c[nH]c(=O)c2cc(F)c(F)cc12)N(C)C(=O)Nc1ccnc(Cl)c1 (single isomer, unassigned) [Compound 418, 3-(2-Chloropyridin-4-yl)-1-(1-(6,7-difluoro-1-oxo-1,2-dihydroisoquinolin-4-yl)ethyl)-1-methylurea] | 5.00
4 | CC(c1c[nH]c(=O)c2cc(F)c(F)cc12)N(C)C(=O)Nc1ccnc(Cl)c1 (single isomer, unassigned) [Compound 419, 3-(2-Chloropyridin-4-yl)-1-(1-(6,7-difluoro-1-oxo-1,2-dihydroisoquinolin-4-yl)ethyl)-1-methylurea] | 7.32
5 | CCN(C(=O)Nc1ccc(F)c(F)c1)C(C)c1c[nH]c(=O)c2cc(F)c(F)cc12 (single isomer, unassigned) [Compound 422, 1-(1-(6,7-Difluoro-1-oxo-1,2-dihydroisoquinolin-4-yl)ethyl)-3-(3,4-difluorophenyl)-1-ethylurea] | 5.55
6 | CCN(C(=O)Nc1ccc(F)c(F)c1)C(C)c1c[nH]c(=O)c2cc(F)c(F)cc12 (single isomer, unassigned) [Compound 423, 1-(1-(6,7-Difluoro-1-oxo-1,2-dihydroisoquinolin-4-yl)ethyl)-3-(3,4-difluorophenyl)-1-ethylurea] | 7.68
7 | CC(c1cnc(-n2ccnn2)c2ccccc12)N(C)C(=O)Nc1ccc(F)c(Cl)c1 (single isomer, unassigned) [Compound 424, 1-(1-(1-(1H-1,2,3-Triazol-1-yl)isoquinolin-4-yl)ethyl)-3-(3-chloro-4-fluorophenyl)-1-methylurea] | 5.19
8 | CC(c1cnc(-n2ccnn2)c2ccccc12)N(C)C(=O)Nc1ccc(F)c(Cl)c1 (single isomer, unassigned) [Compound 425, 1-(1-(1-(1H-1,2,3-Triazol-1-yl)isoquinolin-4-yl)ethyl)-3-(3-chloro-4-fluorophenyl)-1-methylurea] | 7.05
9 | Cc1cc(NC(=O)N(C)C(C)c2c[nH]c(=O)c3cc(F)c(F)cc23)ccc1F (single isomer, unassigned) [Compound 426, 1-(1-(6,7-Difluoro-1-oxo-1,2-dihydroisoquinolin-4-yl)ethyl)-3-(4-fluoro-3-methylphenyl)-1-methylurea] | 6.96
10 | Cc1cc(NC(=O)N(C)C(C)c2c[nH]c(=O)c3cc(F)c(F)cc23)ccc1F (single isomer, unassigned) [Compound 427, 1-(1-(6,7-Difluoro-1-oxo-1,2-dihydroisoquinolin-4-yl)ethyl)-3-(4-fluoro-3-methylphenyl)-1-methylurea] | 8.15
11 | CC(c1c[nH]c(=O)c2cc(F)c(F)cc12)N(C)C(=O)Nc1ccc(F)c(C#N)c1 (single isomer, unassigned) [Compound 428, 3-(3-Cyano-4-fluorophenyl)-1-(1-(6,7-difluoro-1-oxo-1,2-dihydroisoquinolin-4-yl)ethyl)-1-methylurea] | 5.80
12 | CC(c1c[nH]c(=O)c2cc(F)c(F)cc12)N(C)C(=O)Nc1ccc(F)c(C#N)c1 (single isomer, unassigned) [Compound 429, 3-(3-Cyano-4-fluorophenyl)-1-(1-(6,7-difluoro-1-oxo-1,2-dihydroisoquinolin-4-yl)ethyl)-1-methylurea] | 8.00
13 | CC(c1c[nH]c(=O)c2cc(F)c(F)cc12)N(C)C(=O)Nc1cccc(F)c1F (single isomer, unassigned) [Compound 430, 1-(1-(6,7-Difluoro-1-oxo-1,2-dihydroisoquinolin-4-yl)ethyl)-3-(2,3-difluorophenyl)-1-methylurea] | 4.92
14 | CC(c1c[nH]c(=O)c2cc(F)c(F)cc12)N(C)C(=O)Nc1cccc(F)c1F (single isomer, unassigned) [Compound 431, 1-(1-(6,7-Difluoro-1-oxo-1,2-dihydroisoquinolin-4-yl)ethyl)-3-(2,3-difluorophenyl)-1-methylurea] | 6.54
15 | CC(c1c[nH]c(=O)c2c(F)c(F)ccc12)N(C)C(=O)Nc1ccc(F)cc1 (single isomer, unassigned) [Compound 432, 1-(1-(7,8-Difluoro-1-oxo-1,2-dihydroisoquinolin-4-yl)ethyl)-3-(4-fluorophenyl)-1-methylurea] | 4.95
16 | CC(c1c[nH]c(=O)c2c(F)c(F)ccc12)N(C)C(=O)Nc1ccc(F)cc1 (single isomer, unassigned) [Compound 433, 1-(1-(7,8-Difluoro-1-oxo-1,2-dihydroisoquinolin-4-yl)ethyl)-3-(4-fluorophenyl)-1-methylurea] | 7.15
17 | CC(c1c[nH]c(=O)c2c(F)c(F)ccc12)N(C)C(=O)Nc1ccc(F)c(F)c1 (single isomer, unassigned) [Compound 434, 1-(1-(7,8-Difluoro-1-oxo-1,2-dihydroisoquinolin-4-yl)ethyl)-3-(3,4-difluorophenyl)-1-methylurea] | 5.49
18 | CC(c1c[nH]c(=O)c2c(F)c(F)ccc12)N(C)C(=O)Nc1ccc(F)c(F)c1 (single isomer, unassigned) [Compound 435, 1-(1-(7,8-Difluoro-1-oxo-1,2-dihydroisoquinolin-4-yl)ethyl)-3-(3,4-difluorophenyl)-1-methylurea] | 6.62
19 | CC(c1c[nH]c(=O)c2cc(F)c(F)cc12)N(C)C(=O)Nc1cc(Cl)c(F)c(Cl)c1 (single isomer, unassigned) [Compound 438, 3-(3,5-Dichloro-4-fluorophenyl)-1-(1-(6,7-difluoro-1-oxo-1,2-dihydroisoquinolin-4-yl)ethyl)-1-methylurea] | 5.19
20 | CC(c1c[nH]c(=O)c2cc(F)c(F)cc12)N(C)C(=O)Nc1cc(Cl)c(F)c(Cl)c1 (single isomer, unassigned) [Compound 439, 3-(3,5-Dichloro-4-fluorophenyl)-1-(1-(6,7-difluoro-1-oxo-1,2-dihydroisoquinolin-4-yl)ethyl)-1-methylurea] | 6.92
21 | Cc1cc(NC(=O)N(C)C(C)c2c[nH]c(=O)c3c(F)c(F)ccc23)ccc1F (single isomer, unassigned) [Compound 440, 1-(1-(7,8-Difluoro-1-oxo-1,2-dihydroisoquinolin-4-yl)ethyl)-3-(4-fluoro-3-methylphenyl)-1-methylurea] | 6.27
22 | Cc1cc(NC(=O)N(C)C(C)c2c[nH]c(=O)c3c(F)c(F)ccc23)ccc1F (single isomer, unassigned) [Compound 441, 1-(1-(7,8-Difluoro-1-oxo-1,2-dihydroisoquinolin-4-yl)ethyl)-3-(4-fluoro-3-methylphenyl)-1-methylurea] | 8.10

Same assay, conditions: read-out: DE-19bDNA EC50; HepDE19 assay, inhibition of formation of relaxed circular DNA (rcDNA), bDNA quantitation

Row | SMILES | pEC50
23 | CC(c1c[nH]c(=O)c2cc(F)c(F)cc12)N(C)C(=O)Nc1cccc(F)c1 (single isomer, unassigned) [Compound 411, 1-(1-(6,7-Difluoro-1-oxo-1,2-dihydroisoquinolin-4-yl)ethyl)-3-(3-fluorophenyl)-1-methylurea] | 7.43
24 | CC(c1c[nH]c(=O)c2cc(F)c(F)cc12)N(C)C(=O)Nc1cccc(Cl)c1 (single isomer, unassigned) [Compound 412, 1-(1-(6,7-Difluoro-1-oxo-1,2-dihydroisoquinolin-4-yl)ethyl)-3-(3-chlorophenyl)-1-methylurea] | 5.72
25 | CC(c1c[nH]c(=O)c2cc(F)c(F)cc12)N(C)C(=O)Nc1cccc(Cl)c1 (single isomer, unassigned) [Compound 413, 1-(1-(6,7-Difluoro-1-oxo-1,2-dihydroisoquinolin-4-yl)ethyl)-3-(3-chlorophenyl)-1-methylurea] | 7.74
26 | CC(c1c[nH]c(=O)c2cc(F)c(F)cc12)N(C)C(=O)Nc1cc(Cl)cc(Cl)c1 (single isomer, unassigned) [Compound 416, 3-(3,5-Dichlorophenyl)-1-(1-(6,7-difluoro-1-oxo-1,2-dihydroisoquinolin-4-yl)ethyl)-1-methylurea] | 5.00
27 | CC(c1c[nH]c(=O)c2cc(F)c(F)cc12)N(C)C(=O)Nc1cc(Cl)cc(Cl)c1 (single isomer, unassigned) [Compound 417, 3-(3,5-Dichlorophenyl)-1-(1-(6,7-difluoro-1-oxo-1,2-dihydroisoquinolin-4-yl)ethyl)-1-methylurea] | 6.85
28 | CC(c1c[nH]c(=O)c2cc(F)c(F)cc12)N(C)C(=O)Nc1ccccc1F (single isomer, unassigned) [Compound 420, 1-(1-(6,7-Difluoro-1-oxo-1,2-dihydroisoquinolin-4-yl)ethyl)-3-(2-fluorophenyl)-1-methylurea] | 6.13
29 | CC(c1c[nH]c(=O)c2cc(F)c(F)cc12)N(C)C(=O)Nc1ccccc1F (single isomer, unassigned) [Compound 421, 1-(1-(6,7-Difluoro-1-oxo-1,2-dihydroisoquinolin-4-yl)ethyl)-3-(2-fluorophenyl)-1-methylurea] | 4.77
30 | CC(c1c[nH]c(=O)c2c(F)c(F)ccc12)N(C)C(=O)Nc1ccccc1 (single isomer, unassigned) [Compound 436, 1-(1-(7,8-difluoro-1-oxo-1,2-dihydroisoquinolin-4-yl)ethyl)-1-methyl-3-phenylurea] | 4.72
31 | CC(c1c[nH]c(=O)c2c(F)c(F)ccc12)N(C)C(=O)Nc1ccccc1 (single isomer, unassigned) [Compound 437, 1-(1-(7,8-difluoro-1-oxo-1,2-dihydroisoquinolin-4-yl)ethyl)-1-methyl-3-phenylurea] | 6.85
